The structures appear in SMILES notation. Entries after “also recorded” stand apart in the source; their conditions may differ. Where a SMILES comes first, the peptide text is derived from it. [ ]: non-standard residue; d: D form. Ahx = NCCCCCC(=O)O

Test [1] addresses T1, Aβ42 Globulomer (Homo sapiens, UniProt P05067).
T1 construct: beta amyloid (1-42) was monomerized with incubation in hexafluoroisopropanol
As to the kind of experiment: Misfolded Protein Assay, LoD and capture in CSF: globulomer. Type of test: binding. How it is done: (§1) The Ab42 aggregates were prepared as previously described: fibrils were prepared per Stine et al (JBC 2003, 278, p11612), globulomers were prepared per Barghorn et al (J Neurology 2005 95 p834), ADDLs were prepared per Lambert et al (PNAS 1998, 95 p6448), and ASPDs were prepared per Noguchi et al (JBC 2009 284 p32895). Normal CSF was pooled from clinically characterized non-demented patient CSF samples. AD CSF was pooled from clinically-characterized AD patient samples. Alzheimer's Disease Brain Homogenate (ADBH) was prepared by sonication of clinically diagnosed AD patient brain samples in 0.2M.sucrose (1:10 w/v).
(§2) For the capture assay (Misfolded Protein Assay), aliquots of the beads (30 ul) were added to wells of a 96 well plate, followed by 125 ul of sample in 80:20 CSF:TBSTT. The plate was sealed and incubated for 1 h at 37 C with shaking. The plate was washed with TBST and the residual buffer removed. A denaturing solution (0.1 N NaOH) was added to each well and the plate heated to 80 C. for 30 min with shaking. After cooling the plate to RT, a neutralizing buffer (0.12 M NaH2PO3-0.4% TW20,) was added and the plate shaken briefly at RT. The assay was analyzed using the triplex Mesoscale Discovery ELISA kit for Aβ. The Aβ in the samples eluted from the beads were detected per the manufacturer's protocol.
(§3) For the Limit of Detection (LoD) studies, serial dilutions of each aggregate were spiked into CSF and were assayed per the protocol described above. The LoD was defined as 2× over background levels.
(§4) This pattern minors the capture selectivity observed when these species are tested with 3 ul of PSR1 beads and 1 ng/mL of aggregate.

Test [2] has as its target T2, Aβ42 Fibrils (Homo sapiens, UniProt P05067).
T2 construct: The Ab42 aggregates were prepared as previously described
Kind of test: Misfolded Protein Assay, LoD and capture in CSF: fibrils. Type of test: binding. As for the experimental part: as §1, §2, §3, §4

Test [3] deals with T3, Aβ42 ASPD (Homo sapiens, UniProt P05067).
T3 construct: The Ab42 aggregates were prepared as previously described
T3 sequence (P05067 672-713 limits assumed): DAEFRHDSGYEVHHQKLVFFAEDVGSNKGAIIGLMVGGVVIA
Kind of test: Misfolded Protein Assay, LoD and capture in CSF: ASPD. It is filed as binding. How it is done: as §1, §2, §3, §4

Test [4] deals with Alzheimer's Disease Brain Homogenate (ADBH) Aβ aggregates. As to the kind of experiment: Misfolded Protein Assay, LoD in CSF: ADBH. Conditions: spiked into CSF; LoD = 2× over background. It is filed as binding, human. How it is done:
as §1
as §2, with “protocol. […]” for “protocol.”

Test [5] addresses Aβ42 ADDL (Homo sapiens, UniProt P05067). As to the kind of experiment: Misfolded Protein Assay, LoD and capture in CSF: ADDL. It is filed as binding. As for the experimental part: as §1, §2, §3, §4
For test [6], the target named is T4, Aβ40 aggregates in AD CSF (Homo sapiens, UniProt P05067).
T4 construct: from tissue; host or cells: pooled cerebrospinal fluid (normal or AD)
T4 sequence (P05067 672-711 limits assumed): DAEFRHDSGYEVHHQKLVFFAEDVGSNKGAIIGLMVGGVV
As to the kind of experiment: Discrimination between AD and normal CSF. Type of test: binding. The settings on record: FIG. 39. As for the experimental part: as §1, §2
For discriminating between AD and normal CSF, pooled normal CSF or pooled Alzheimer's Disease patient CSF, were assayed per the protocol described above.

Setting [7] is: 3 ul of beads and 1 ng/mL of aggregate.
The mark [8] stands for this setting: spiked into CSF, LoD = 2× over background.

T2 sequence (P05067 672-713 limits assumed): as the sequence (P05067 672-713 limits assumed) above
T1 sequence (P05067 672-713 limits assumed): as above
Aβ42 ADDL, sequence (P05067 672-713 limits assumed): as above

As to `CC(=O)NC(Cc1ccccc1)C(=O)NC(CCCCN)C(=O)NC(Cc1ccccc1)C(=O)NC(CCCCN)C(=O)NC(CCCCN)C(=O)NC(CCCCN)C(=O)NCCCCCC(=O)NCCCCCC(=O)NC(CS)C(N)=O` (stereo not drawn) [Ac-FKFKKK, Ac-FKFKKK-Ahx-Ahx-Cys-NH2] (Ac-FKFKKK[Ahx][Ahx]C-NH2; configuration not given here), the “capture of Globulomer” value in test [1] (setting [7]) is recorded as 3409. The LoD in test [1] (setting [8]) was 75 to 120 pg/mL; in test [2] (setting [8]), 100 pg/mL; in test [3] (setting [8]), 300 pg/mL; in test [4], under 10 pg/mL; in test [5] (setting [8]) it was 300 pg/mL. The “capture of Fibril” value in test [2] (setting [7]) was 4138. The “capture of ASPD” value in test [3] (setting [7]) is 1321. For the same compound, in test [5] (setting [7]), the “capture of ADDL” value is recorded as 1241. Further, in test [6], the “Aβ40 signal in pooled AD CSF relative to normal pool” value was “higher Aβ40 signal in positive pooled AD CSF relative to unmatched normal pool; also recorded: largest change in signal”.
